The NIST ThermoML archive (doi:10.1021/je700152c)
± gives the expanded uncertainty stated by the source.

- Triple point temperature (Crystal 1, Adiabatic calorimetry): 343.8 ± 0.67 K
- Triple point temperature (Crystal 2, Adiabatic calorimetry): 152 ± 1 K
- Triple point temperature (Metastable crystal): 342.48 ± 0.2 K
SMILES: CCCCn1cc[n+](C)c1.Cc1ccc(S(=O)(=O)[O-])cc1 [1-butyl-3-methylimidazolium tosylate]
